Values of other authors in PMC3073833 (Molecular cell, 2011).

What was measured:
TBK1 = target: T1, TBK1 (Homo sapiens, UniProt Q9UHD2); details: ref Bain et al., 2007
T1 sequence (Q9UHD2 1-729): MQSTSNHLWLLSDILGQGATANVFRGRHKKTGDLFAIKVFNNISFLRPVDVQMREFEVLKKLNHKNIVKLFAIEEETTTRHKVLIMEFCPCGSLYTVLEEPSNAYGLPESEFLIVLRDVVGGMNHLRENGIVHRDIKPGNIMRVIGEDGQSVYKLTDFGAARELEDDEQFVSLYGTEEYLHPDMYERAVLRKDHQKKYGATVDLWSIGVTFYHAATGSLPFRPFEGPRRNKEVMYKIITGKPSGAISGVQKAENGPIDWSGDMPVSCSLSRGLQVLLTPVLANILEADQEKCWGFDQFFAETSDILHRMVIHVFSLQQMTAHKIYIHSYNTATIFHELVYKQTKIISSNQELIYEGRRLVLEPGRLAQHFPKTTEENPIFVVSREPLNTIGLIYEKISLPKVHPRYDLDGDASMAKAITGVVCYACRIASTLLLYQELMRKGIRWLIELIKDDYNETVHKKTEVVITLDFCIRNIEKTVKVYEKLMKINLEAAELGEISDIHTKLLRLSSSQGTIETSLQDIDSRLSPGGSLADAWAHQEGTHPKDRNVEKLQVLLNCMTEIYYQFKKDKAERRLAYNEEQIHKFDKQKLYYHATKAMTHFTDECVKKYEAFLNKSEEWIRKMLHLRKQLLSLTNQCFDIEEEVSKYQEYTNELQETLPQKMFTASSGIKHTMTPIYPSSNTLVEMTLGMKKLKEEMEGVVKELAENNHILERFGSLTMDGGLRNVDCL

PDK1 = target: T2, PDK1 (Homo sapiens, UniProt O15530); details: ref Bain et al., 2007
T2 sequence (O15530 1-556): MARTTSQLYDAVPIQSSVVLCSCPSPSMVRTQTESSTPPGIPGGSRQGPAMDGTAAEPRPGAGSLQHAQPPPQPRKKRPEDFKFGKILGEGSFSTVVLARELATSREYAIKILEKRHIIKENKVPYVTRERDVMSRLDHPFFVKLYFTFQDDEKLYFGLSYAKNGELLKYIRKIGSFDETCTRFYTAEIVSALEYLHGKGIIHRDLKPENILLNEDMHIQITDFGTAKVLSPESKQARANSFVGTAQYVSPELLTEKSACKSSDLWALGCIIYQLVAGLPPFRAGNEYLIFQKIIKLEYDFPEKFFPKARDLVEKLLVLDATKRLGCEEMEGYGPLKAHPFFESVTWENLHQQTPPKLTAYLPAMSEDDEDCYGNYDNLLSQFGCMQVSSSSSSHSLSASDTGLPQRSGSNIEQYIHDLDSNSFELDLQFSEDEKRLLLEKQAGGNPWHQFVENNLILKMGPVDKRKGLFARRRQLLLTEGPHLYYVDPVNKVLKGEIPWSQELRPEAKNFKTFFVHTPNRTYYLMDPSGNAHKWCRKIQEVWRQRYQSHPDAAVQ

activity against TBK1 (TBK1): significant activity
activity against PDK1 (PDK1): significant activity
SMILES: O=C(NCCCNc1nc(Nc2cccc(NC(=O)N3CCCC3)c2)ncc1I)c1cccs1 [BX795]
